Data: patent EP4663640A1 (Shanghai Institute of Materia Medica, Chinese Academy of …, priority 2023, dated 2024)
Where two headings read alike, the source gives them in different places.

Tests used:
hTRPC5 [1] = biological target: T1, hTRPC5 (Homo sapiens, UniProt Q9UL62); assay: TRPC5 inhibitory activity assay (FLIPR calcium fluorescence, Englerin A stimulation); type: cell-based
T1 construct: expressed in transfected cells; host or cells: HEK-293
T1 sequence (Q9UL62 1-973): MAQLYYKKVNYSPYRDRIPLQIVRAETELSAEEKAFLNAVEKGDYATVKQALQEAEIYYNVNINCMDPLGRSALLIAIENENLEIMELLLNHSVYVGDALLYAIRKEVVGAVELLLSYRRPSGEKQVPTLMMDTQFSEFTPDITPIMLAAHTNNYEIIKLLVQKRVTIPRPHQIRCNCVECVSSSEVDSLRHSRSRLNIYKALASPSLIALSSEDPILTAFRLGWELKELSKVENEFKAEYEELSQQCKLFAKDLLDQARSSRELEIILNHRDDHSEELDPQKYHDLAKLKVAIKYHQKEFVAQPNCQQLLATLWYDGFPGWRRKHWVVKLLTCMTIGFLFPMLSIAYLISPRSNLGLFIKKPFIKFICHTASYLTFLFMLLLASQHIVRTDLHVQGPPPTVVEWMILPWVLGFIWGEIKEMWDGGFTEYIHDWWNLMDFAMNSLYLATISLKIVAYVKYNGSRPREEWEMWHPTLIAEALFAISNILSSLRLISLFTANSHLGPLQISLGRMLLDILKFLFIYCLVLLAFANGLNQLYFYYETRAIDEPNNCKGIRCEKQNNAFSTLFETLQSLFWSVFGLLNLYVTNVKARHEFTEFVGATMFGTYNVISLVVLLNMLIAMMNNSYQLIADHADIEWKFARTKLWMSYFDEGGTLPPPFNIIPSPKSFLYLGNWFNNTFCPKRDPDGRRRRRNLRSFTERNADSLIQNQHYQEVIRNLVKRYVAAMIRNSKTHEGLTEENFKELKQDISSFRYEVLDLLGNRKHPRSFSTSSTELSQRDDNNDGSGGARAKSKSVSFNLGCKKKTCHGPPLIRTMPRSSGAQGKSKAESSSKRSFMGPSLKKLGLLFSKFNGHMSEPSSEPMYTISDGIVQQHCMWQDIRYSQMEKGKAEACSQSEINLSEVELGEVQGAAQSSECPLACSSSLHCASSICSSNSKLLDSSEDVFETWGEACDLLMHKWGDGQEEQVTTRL
Method: HEK-293 cells expressing hTRPC3, hTRPC4 or hTRPC5 were seeded into black-bottomed 96-well plates coated with poly-lysine (PDL), with 2×10^4 cells per well. After 8 h of culture, the original culture medium was discarded, and 60 µL of Fluo-4/AM dye with a final concentration of 4 µM was added. The plates were incubated at 37 °C for 60 min, and then rinsed five times with calcium flow detection buffer. […] Then, the agonist Englerin A (EA) (MedChemExpress, Shanghai, China, final concentration of 0.3nM) was added, and the fluorescence signal was collected for 600 seconds. The fluorescence signal of the trajectory diagram is represented by F/F0, wherein F is the fluorescence signal at different time points, and F0 is the basic fluorescence signal, that is, the average value of the fluorescence signal at the first 10 time points. […] The area under the curve of the change in fluorescence intensity after adding EA was calculated. IC50 value was calculated using log[Inhibitor] vs. response - Variable slope, taking into account the area under the curve and the log value of the concentration of the compound.

[2] = Preliminary pharmacokinetic evaluation, plasma drug concentration after oral administration to mice; type: in vivo, ICR mice; conditions: oral 10 mg/kg, Mean ± SD, N = 3
Method: The test compound was prepared according to the following solvent: an aqueous solution of DMSO/Tween 80/0.5% (m/v) CMC-Na at a ratio of 2:2:96 (v/v/v), with a drug concentration of 1 mg/mL. Then, the test compound was gavaged to mice at a dosage of 10 mL/kg, with a dose of 10 mg/kg. Each compound was administered to 3 mice. At 1h and 4h after administration, about 50 µL of blood was collected from the orbital venous plexus of the mouse and placed in a centrifuge tube containing EDTA-K2 anticoagulant.

hERG channel = biological target: T2, hERG channel (Homo sapiens, UniProt Q12809); assay: hERG channel inhibition assay (Qpatch whole-cell recording, CHO cells expressing hERG); type: cell-based; conditions: Table 3; highest test concentration 40 µM; read-out: inhibitory activity IC50 hERG
T2 construct: expressed in transfected cells; host or cells: CHO
T2 sequence (Q12809 whole entry): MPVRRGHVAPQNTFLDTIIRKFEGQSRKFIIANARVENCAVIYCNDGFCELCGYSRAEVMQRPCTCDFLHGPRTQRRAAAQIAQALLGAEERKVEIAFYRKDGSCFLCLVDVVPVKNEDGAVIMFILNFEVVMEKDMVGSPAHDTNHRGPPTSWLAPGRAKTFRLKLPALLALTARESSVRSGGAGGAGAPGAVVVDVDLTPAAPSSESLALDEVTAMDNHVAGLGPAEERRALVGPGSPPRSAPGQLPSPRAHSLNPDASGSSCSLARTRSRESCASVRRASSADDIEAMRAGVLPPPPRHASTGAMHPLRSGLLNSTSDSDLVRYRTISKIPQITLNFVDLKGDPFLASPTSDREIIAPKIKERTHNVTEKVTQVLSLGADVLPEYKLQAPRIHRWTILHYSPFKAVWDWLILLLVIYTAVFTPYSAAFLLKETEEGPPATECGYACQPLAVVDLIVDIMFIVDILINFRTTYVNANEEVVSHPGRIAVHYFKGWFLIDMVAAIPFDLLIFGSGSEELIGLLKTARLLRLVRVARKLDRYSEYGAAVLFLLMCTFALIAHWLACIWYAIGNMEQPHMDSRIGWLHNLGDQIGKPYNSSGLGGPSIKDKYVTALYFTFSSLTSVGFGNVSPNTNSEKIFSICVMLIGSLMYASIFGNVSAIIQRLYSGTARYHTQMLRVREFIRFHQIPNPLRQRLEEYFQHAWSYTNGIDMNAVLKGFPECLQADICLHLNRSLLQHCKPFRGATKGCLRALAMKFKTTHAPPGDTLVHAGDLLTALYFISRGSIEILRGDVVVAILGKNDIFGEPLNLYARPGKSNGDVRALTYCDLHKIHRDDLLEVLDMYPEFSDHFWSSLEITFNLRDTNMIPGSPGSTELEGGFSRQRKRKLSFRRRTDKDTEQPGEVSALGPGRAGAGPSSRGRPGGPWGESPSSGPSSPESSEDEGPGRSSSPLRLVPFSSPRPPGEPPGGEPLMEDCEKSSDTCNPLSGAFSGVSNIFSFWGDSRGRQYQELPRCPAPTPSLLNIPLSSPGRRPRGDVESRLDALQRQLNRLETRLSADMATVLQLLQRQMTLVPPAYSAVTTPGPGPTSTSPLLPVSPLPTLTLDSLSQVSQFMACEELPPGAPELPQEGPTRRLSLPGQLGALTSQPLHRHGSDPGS
Method: (§1) CHO cells expressing hERG protein were cultured in 175cm^2 culture flasks. When the cell density grew to 60-80%, the culture medium was removed, and the cells were washed with 7mL PBS, and then 3mL Detachin was added for digestion. After digestion was complete, 7mL culture medium was added for neutralization, and then centrifuged, the supernatant was aspirated, and 5mL culture medium was added for resuspending to ensure that the cell density was 2-5×10^6/mL.
(§2) The single-cell high-impedance sealing and whole-cell pattern formation process were all automatically completed by the Qpatch instrument. After obtaining the whole-cell recording mode, the cell was clamped at -80 mV. […] This voltage stimulus was applied every 15 seconds. After recording for 2 minutes, the extracellular solution was recorded for 2 minutes, and then the drug administration process began. The compound concentration started from the lowest test concentration, and each test concentration was given for 2 minutes. After all concentrations were given continuously, the positive control compound 10 µM Cisapride was given. At least 3 cells (n≥3) were tested for each concentration.
(§3) The stock solution of compound was diluted with extracellular solution, 5 µL of 20 mM compound stock solution was added to 2495 µL of extracellular solution, 500 times diluted to 40 µM, and then 3 times serial dilution was performed in the extracellular solution containing 0.2% DMSO to obtain the final concentration to be tested.
(§4) (5) Data analysis: The experimental data were analyzed by XLFit software.

[3] = biological target: T3, hERG channel (relative to TRPC5) (Homo sapiens, UniProt Q12809); assay: as above; type: cell-based; conditions: human, CHO cells expressing hERG; ratio of IC50 values
T3 construct: expressed in transfected cells; host or cells: CHO
T3 sequence (Q12809 whole entry): as above
Method: as §1, §2, §3, §4

hTRPC5 [4] = biological target: T1, hTRPC5; assay: TRPC5 agonist activity assay (FLIPR calcium fluorescence); type: cell-based; conditions: Table 2, agonist activity on TRPC5 channels
Method: HEK-293 cells expressing hTRPC5 were seeded into PDL-coated black-walled 96-well plates, with 2×10^4 cells per well. After 8 hours of culture, the original culture medium was discarded, and 60 µL of 4 µM Fluo-4/AM dye was added immediately. The cells were incubated at 37 °C for 60 minutes, and then rinsed with calcium flow detection buffer 5 times. The cell plates were placed in FLIPR®TETRA (Molecular Devices, Sunnyvale, CA, USA) preheated at 30 °C, excited at a wavelength of 488 nm, and the fluorescence signals were continuously recorded in the range of 515-535 nm with a sampling frequency of 1 s. After recording for 360 seconds, solvent control and test compounds were added, and the fluorescence signal was collected for another 600 seconds. The fluorescence signal of the trajectory diagram is represented by F/F0, wherein F is the fluorescence signal at different time points, and F0 is the basic fluorescence signal, that is, the average value of the fluorescence signal at the first 10 time points. The dose-effect diagram first took F/F0 =1 as the baseline. The area under the curve of the change in fluorescence intensity after adding test compound was calculated. IC50 value was calculated using log[agonist] vs. response - Variable slope, taking into account the area under the curve and the log value of the concentration of the compound.

mice [5] = assay: Tail suspension test (antidepression); type: in vivo; conditions: before versus after administration (Figure 4)
Method: (§5) The drug to be tested was dissolved in DMSO: Tween 80: distilled water at a ratio of 2:2:96 (v/v/v), and then administered to mice by gavage at a volume of 10 mL/kg. […] The blank control group was only given 10 mL/kg of the above solvent.
The mouse tail suspension test (TST) is a widely used experimental method to evaluate the effectiveness of antidepressants and other psychotropic drugs. The principle of the test is to suspend a mouse by its tail and observe its behavior. The mouse will initially struggle to escape, but when it realizes that escape is impossible, it will eventually stop struggling and enter a state of immobility that indicates despair. This immobility behavior is used to measure depression-like states, and the severity of the condition is assessed by recording the duration of immobility.
The same mouse was subjected to the tail suspension test immediately after the marble burying test. A tail suspension test box was built using a black frosted acrylic board, 55 cm high, 15 cm long, and 11.5 cm wide. The three sides and top of the box were frosted blackboards, and one side was used for video recording. The mouse tail was wrapped with yellow tape 2 cm away from the tip of the tail, and the mouse was hung upside down in the middle of the top acrylic board. The tip of the mouse tail was about 3 cm away from the acrylic board, and the body was suspended and could not touch the surrounding board wall. The test time for each mouse lasted for 6 minutes, and the immobility time of the mouse during this time was counted. After the experiment, the mouse was returned to the cage, and the inside of the box and the table were wiped with alcohol to remove the smell of the previous mouse to prevent affecting the next mouse experiment. The criteria for immobility in the tail suspension test: stop struggling, no flexion or twisting of the body, no swinging of the hind limbs, and slight swinging of the forelimbs and head were also counted as immobility time.

mice [6] = assay: Marble burial test (antianxiety); type: in vivo; conditions: before versus after administration (Figure 3)
Method: as §5
The mouse marble burial test is a behavioral assay used for the screening of antianxiety drugs. It exploits the natural digging behavior of mice in environments such as burrows or escape tunnels and is sensitive to small changes in behavior caused by genetic manipulation, disease, or drug treatment.
A 5cm thick sawdust litter was laid in a 33 cm×24 cm×28 cm carton, and 4×5 black marbles (4 cm apart) with a total of 20 black marbles of 14mm in diameter were neatly placed on the litter. The mouse was put into the carton facing the corner for 30 minutes. After 30 minutes, the mouse was carefully taken out and the number of marbles buried by the mouse was counted. If more than 2/3 of the marble was buried, it was considered a whole marble. First, a blank experiment was conducted. Before the experiment, the mouse was taken to the experimental environment to adapt. After 1 hour, the experiment began. After the experiment, the mouse was returned to the cage and the number of marbles buried by the mouse was counted. On the second day, the mouse was taken to the experimental environment to adapt for 1 hour before the drug was administered. After the drug administration, the marble burying experiment was conducted for […]. After the experiment, the mouse was carefully taken out and returned to the cage to prevent the mouse from escaping violently and affecting the experimental results. After counting, the black marbles were taken out and wiped with alcohol, and the litter was turned over again to remove the smell of the previous mouse to prevent it from affecting the experiment of the next mouse. The marbles were neatly placed for the experiment of the next mouse.

[7] = Liver microsome stability test, mouse; type: in vitro ADME; conditions: Mouse liver microsomes
Excerpt: Calculation of Intrinsic Clearance: Clint = (1000 × slope)/(P); [formula]

Cn1c(=O)n(CCCO)c(=O)c2c1nc(C1(F)CCC(F)(F)CC1)n2Cc1ccc(C(F)(F)F)cc1 [Example E60, 1-(3-hydroxypropyl)-3-methyl-8-(1,4,4-trifluorocyclohexyl)-7-(4-(trifluoromethyl)benzyl)-3,7-dihydro-1H-purine-2,6-dione]
IC50 (hTRPC5 [1]; Table 1, TRPC5 channels, HEK-293 cells expressing hTRPC5, read-out: FLIPR IC50): 6.87 nM
IC50 (hTRPC5 [1]; Table 3, read-out: inhibitory activity IC50 TRPC5): 6.9 nM
concentration at 1 h ([2]; male, ICR, mouse, 1h): 1310 ± 45 ng/mL
concentration at 4 h ([2]; male, ICR, mouse, 4h): 1180 ± 163 ng/mL
IC50 (hERG channel): 13300 nM
selectivity ratio at 2 min [3]: 1940

COC1(c2nc3c(c(=O)n(CCCO)c(=O)n3C)n2Cc2ccc(Cl)cc2)CCC(C)(C)CC1 [Example E26, 7-(4-chlorobenzyl)-1-(3-hydroxypropyl)-8-(1-methoxy-4,4-dimethylcyclohexyl)-3-methyl-3,7-dihydro-1H-purine-2,6-dione]
EC50 (hTRPC5 [4]): 100 to 200 nM

CNCCC(Oc1ccc(C(F)(F)F)cc1)c1ccccc1 (stereo not shown) [Fluoxetine, reference compound]
immobility time of mice (mice [5]; oral 10 mg/kg): significantly reduced
number of marbles buried by mice (mice [6]; oral 10 mg/kg): significantly reduced

Cn1c(=O)n(CCCO)c(=O)c2c1nc(Oc1cccc(Cl)c1)n2Cc1ccc(Cl)cc1 [HC-070, reference compound]
immobility time of mice (mice [5]; oral 1 mg/kg): significantly reduced
drug concentration 1h ([2]; 1h): 802 ± 164 ng/mL
drug concentration 4h ([2]; 4h): 398 ± 57 ng/mL
Stability Evaluation [7]: Worse (MF%<30%, worse metabolic stability)
MF % ([7]; metabolic bioavailability): 19.8%
half-life ([7]; pH 7.4, 1µM compound, read-out: Half-life T1/2): 11.7 min
number of marbles buried by mice (mice [6]; oral 1 mg/kg): significantly reduced
